Experimental data reported in patent publication US8106090B2, “1-amino linked compounds” (Eli Lilly and Company, priority 2005, dated 2012).
pIC50: −log10 of the molar value. Where a name gives a salt, the structure may show the parent alone.

The compounds below were run against T1, human recombinant DPIV enzyme (Homo sapiens, UniProt P27487) (assay: Human recombinant DPIV activity assay (fluorometric end point, Gly-Pro-AMC substrate)). Conditions: enriched human recombinant DPIV, Gly-Pro-AMC 0.02 mM, 12 points concentration response curve, duplicates.
T1 construct: Secreted DPIV (lacking membrane anchor) was enriched from HEK293 cell culture supernatant; made in house; host or cells: HEK293
T1 sequence (P27487 29-766 limits assumed): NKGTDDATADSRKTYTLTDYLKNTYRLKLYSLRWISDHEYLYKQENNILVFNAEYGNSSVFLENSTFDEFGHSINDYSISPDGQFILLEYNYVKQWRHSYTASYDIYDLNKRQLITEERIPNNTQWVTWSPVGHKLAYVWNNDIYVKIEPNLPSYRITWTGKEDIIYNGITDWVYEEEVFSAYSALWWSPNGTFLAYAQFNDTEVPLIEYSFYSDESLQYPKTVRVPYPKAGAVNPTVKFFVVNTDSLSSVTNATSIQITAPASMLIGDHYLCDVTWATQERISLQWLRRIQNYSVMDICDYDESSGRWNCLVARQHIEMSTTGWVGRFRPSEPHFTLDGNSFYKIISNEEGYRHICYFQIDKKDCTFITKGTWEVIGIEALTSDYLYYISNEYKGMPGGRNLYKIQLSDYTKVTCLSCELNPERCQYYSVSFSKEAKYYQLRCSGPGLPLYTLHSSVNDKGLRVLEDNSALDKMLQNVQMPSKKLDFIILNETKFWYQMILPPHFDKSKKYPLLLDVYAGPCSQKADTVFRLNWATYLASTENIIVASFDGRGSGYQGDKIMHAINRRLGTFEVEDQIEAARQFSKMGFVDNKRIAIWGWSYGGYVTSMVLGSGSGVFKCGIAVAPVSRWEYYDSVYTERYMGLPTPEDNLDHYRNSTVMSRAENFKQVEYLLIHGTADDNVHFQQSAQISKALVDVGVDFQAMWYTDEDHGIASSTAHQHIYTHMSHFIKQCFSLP
Assay type: biochemical
Experimental: Human Recombinant DPIV Activity Assay
The DPIV assay used was a fluorometric end point assay (excitation 355 nm; emission 460 nm) using enriched human recombinant DPIV enzyme (21.3 μU/μl), and Gly-Pro-AMC (Bachem I-1225) as substrate (0.02 mM). Secreted DPIV (lacking membrane anchor) was enriched from HEK293 cell culture supernatant by ultrafiltration, ultra-centrifugation, and size-exclusion chromatography. IC50 values of the compounds were calculated based on a 12 points concentration response curve. Each concentration was measured as duplicates. The assay was validated by plate variability and conformity, inter-plate variability, signal window, and minimum significant ration of IC50. A MSR was calculated based on a test/retest analysis and a retrospective analysis. The MSR value is 1.8.
`N[C@H](Cc1ccccc1)[C@@H](O)CN1CCCC(c2ccccc2)C1` (stereo partly drawn) [Example 6, (2S,3R)-3-Amino-4-phenyl-1-([3R,S]-3-phenyl-piperidin-1-yl)-butan-2-ol Dihydrochloride] gave a pIC50 of 5.56. With `N[C@H](Cc1ccccc1)[C@@H](O)Cn1cccn1` [Example 13, (2S,3R)-3-Amino-4-phenyl-1-pyrazol-1-yl-butan-2-ol Hydrochloride] the pIC50 was 5.52. `N[C@H](Cc1ccccc1)[C@@H](O)Cn1cnc2ccccc21` [Example 15, (2S,3R)-3-Amino-1-benzimidazol-1-yl-4-phenyl-butan-2-ol Hydrochloride] was tested, and the pIC50 was 5.36. `CN(C[C@H](O)[C@H](N)Cc1ccccc1)S(C)(=O)=O` [Example 21, N-[(2S,3R)-3-Amino-2-hydroxy-4-phenyl-butyl]-N-methyl-methanesulfonamide Hydrochloride] showed a pIC50 of 5.01.
